Results: ChEMBL document CHEMBL1909511, “Inhalation by design: novel tertiary amine muscarinic M₃ receptor antagonists with slow off-rate binding kinetics for inhaled once-daily treatment of chronic obstructive pulmonary disease” (J Med Chem, 2011)

Legend:
Canis familiaris [1] = assay: Bronchodilator activity in Beagle dog assessed as inhibition of methacholine-induced lung resistance after cumulative intratracheal administration in micelle solution at hourly intervals challenged each time 1 hr later with methacholine; format: functional, Canis lupus familiaris
[2] = biological target: Muscarinic acetylcholine receptor M3 (Cavia porcellus) (UniProt Q8VH26); assay: Antagonist activity at M3 receptor in Dunkin-Hartley guinea pig tracheal strips assessed as time taken for electrically field-stimulated contractile response to recover by 25 percent of inhibition at Emax after 2 hrs; format: functional
[3] = biological target: T1, Muscarinic acetylcholine receptor M3 (Homo sapiens, UniProt P20309); assay: Displacement of [3H]-NMS from human recombinant M3 receptor expressed in CHO cells after 2 hrs by filter binding assay; format: cell-based
Target sequence in this assay (P20309 whole entry): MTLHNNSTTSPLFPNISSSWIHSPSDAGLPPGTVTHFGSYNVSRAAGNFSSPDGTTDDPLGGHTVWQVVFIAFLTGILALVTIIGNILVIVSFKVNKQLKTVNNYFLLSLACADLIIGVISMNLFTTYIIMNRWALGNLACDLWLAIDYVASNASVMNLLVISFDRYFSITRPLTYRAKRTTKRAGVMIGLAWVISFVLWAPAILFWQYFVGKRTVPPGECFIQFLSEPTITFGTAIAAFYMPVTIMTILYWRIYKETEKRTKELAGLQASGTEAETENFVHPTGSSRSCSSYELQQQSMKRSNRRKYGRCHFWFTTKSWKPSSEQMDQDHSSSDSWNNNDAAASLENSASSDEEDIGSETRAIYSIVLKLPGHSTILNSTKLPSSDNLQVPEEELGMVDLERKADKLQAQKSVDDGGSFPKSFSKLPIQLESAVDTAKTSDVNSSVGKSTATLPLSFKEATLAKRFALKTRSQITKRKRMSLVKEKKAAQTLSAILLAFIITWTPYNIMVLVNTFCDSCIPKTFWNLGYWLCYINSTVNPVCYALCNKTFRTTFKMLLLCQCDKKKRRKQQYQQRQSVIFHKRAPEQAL

[4] = Apparent permeability across basolateral to apical side in human Caco2 cells; format: ADME, cell-based; conditions: Caco-2
[5] = Apparent permeability across apical to basolateral side in human Caco2 cells; format: ADME, cell-based; conditions: Caco-2
[6] = biological target: T1, Muscarinic acetylcholine receptor M3; assay: Antagonist activity at human recombinant M3 receptor expressed in CHO-K1 cells assessed as inhibition of carbamoyl choline-induced calcium currents after 4 hrs by fluorimetry; format: functional, cell-based
Target sequence in this assay (P20309 whole entry): as above

[7] = biological target: T2, Muscarinic acetylcholine receptor M2 (Homo sapiens, UniProt P08172); assay: Displacement of [3H]-NMS from human recombinant M2 receptor expressed in CHO cells after 2 hrs by filter binding assay; format: cell-based
T2 sequence (P08172 whole entry): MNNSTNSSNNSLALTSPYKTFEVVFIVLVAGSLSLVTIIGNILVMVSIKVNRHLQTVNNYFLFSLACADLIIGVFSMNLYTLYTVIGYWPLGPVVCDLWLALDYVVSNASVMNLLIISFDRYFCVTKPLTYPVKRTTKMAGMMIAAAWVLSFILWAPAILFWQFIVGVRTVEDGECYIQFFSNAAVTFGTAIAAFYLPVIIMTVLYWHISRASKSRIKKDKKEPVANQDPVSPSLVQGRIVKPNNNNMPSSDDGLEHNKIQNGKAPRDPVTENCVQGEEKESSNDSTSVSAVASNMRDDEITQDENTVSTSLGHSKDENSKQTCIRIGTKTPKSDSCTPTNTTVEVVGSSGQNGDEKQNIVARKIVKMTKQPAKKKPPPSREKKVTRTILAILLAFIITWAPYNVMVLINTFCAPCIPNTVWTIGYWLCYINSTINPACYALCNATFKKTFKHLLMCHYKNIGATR

[8] = biological target: T1, Muscarinic acetylcholine receptor M3; conditions: CHO
Target sequence in this assay (P20309 whole entry, looked up): as the sequence (P20309 whole entry) above

[9] = Intrinsic clearance in human liver microsomes assessed per mg of protein by glucuronidation assay in presence of Brijj-58 and UDPGA
[10] = Intrinsic clearance in human hepatocytes assessed per million cells
[11] = Intrinsic clearance in human liver microsomes assessed per mg of protein in presence of NADPH
[12] = biological target: Muscarinic acetylcholine receptor M3 (Cavia porcellus, UniProt Q8VH26); assay: Antagonist activity at M3 receptor in Dunkin-Hartley guinea pig tracheal strips assessed as inhibition of electrically field-stimulated contractile response after 8 hrs; format: functional
Cavia porcellus = assay: Bronchodilator activity in Dunkin-Hartley guinea pig assessed as inhibition of […] lung resistance after cumulative intratracheal administration in micelle solution at hourly intervals challenged each time 1 hr later with methacholine; format: functional, organism-based
[13] = biological target: T3, Muscarinic acetylcholine receptor M4 (Homo sapiens) (UniProt P08173); assay: Displacement of [3H]-NMS from human recombinant M4 receptor expressed in CHO cells assessed as dissociation half life at 100 fold human M4 receptor binding Ki concentration after 24 hrs by dilution-offset filter binding assay; format: cell-based
T3 sequence (whole entry): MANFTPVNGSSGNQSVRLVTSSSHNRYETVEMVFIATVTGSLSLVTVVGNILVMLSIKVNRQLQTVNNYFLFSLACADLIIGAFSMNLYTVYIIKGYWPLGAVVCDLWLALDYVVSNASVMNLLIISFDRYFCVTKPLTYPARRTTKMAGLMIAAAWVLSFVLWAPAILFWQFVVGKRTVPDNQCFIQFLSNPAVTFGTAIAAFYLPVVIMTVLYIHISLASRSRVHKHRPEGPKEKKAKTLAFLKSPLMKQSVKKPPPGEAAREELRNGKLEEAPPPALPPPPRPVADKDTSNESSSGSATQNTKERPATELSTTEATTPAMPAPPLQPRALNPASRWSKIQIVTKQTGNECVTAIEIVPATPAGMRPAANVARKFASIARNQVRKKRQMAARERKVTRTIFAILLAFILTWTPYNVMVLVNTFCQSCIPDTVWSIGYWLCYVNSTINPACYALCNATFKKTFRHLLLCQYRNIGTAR

[14] = biological target: T1, Muscarinic acetylcholine receptor M3; conditions: CHO; remark: listed apart in the source
Target sequence in this assay (P20309 whole entry, looked up): as the sequence (P20309 whole entry) above

[15] = biological target: T4, Muscarinic acetylcholine receptor M4 (Homo sapiens, UniProt P08173); assay: Displacement of [3H]-NMS from human recombinant M4 receptor expressed in CHO cells after 24 hrs by filter binding assay; format: cell-based
T4 sequence (P08173 whole entry): T3 sequence (whole entry)

Canis familiaris [16] = assay: Bronchodilator activity in methacholine challenged Beagle dog assessed as intrinsic duration of action at 10 ug intratracheally administered as single dose in micelle solution; format: functional, Canis lupus familiaris
[17] = biological target: T5, Muscarinic acetylcholine receptor M5 (Homo sapiens, UniProt P08912); assay: Displacement of [3H]-NMS from human recombinant M5 receptor expressed in CHO cells after 24 hrs by filter binding assay; format: cell-based
T5 sequence (P08912 whole entry): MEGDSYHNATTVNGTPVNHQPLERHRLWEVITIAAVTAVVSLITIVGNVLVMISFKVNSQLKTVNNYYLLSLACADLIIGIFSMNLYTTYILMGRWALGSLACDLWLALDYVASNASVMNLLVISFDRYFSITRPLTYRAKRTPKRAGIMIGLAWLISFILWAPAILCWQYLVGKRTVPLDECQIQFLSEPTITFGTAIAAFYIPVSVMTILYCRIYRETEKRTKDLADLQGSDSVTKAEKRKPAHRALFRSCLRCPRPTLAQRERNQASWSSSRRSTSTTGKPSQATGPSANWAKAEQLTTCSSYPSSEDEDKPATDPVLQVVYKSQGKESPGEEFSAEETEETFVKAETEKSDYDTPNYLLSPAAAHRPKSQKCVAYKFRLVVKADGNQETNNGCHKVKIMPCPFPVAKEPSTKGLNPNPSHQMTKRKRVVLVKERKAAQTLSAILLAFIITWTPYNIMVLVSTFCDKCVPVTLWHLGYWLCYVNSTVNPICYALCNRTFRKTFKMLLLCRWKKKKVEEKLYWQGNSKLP

[18] = biological target: T1, Muscarinic acetylcholine receptor M3
Target sequence in this assay (P20309 whole entry, looked up): as the sequence (P20309 whole entry) above
Description: Displacement of radioligand from M3 receptor assessed as dissociation half life

[19] = biological target: T1, Muscarinic acetylcholine receptor M3; remark: listed apart in the source
Target sequence in this assay (P20309 whole entry, looked up): as the sequence (P20309 whole entry) above

[20] = biological target: T6, Muscarinic acetylcholine receptor M1 (Homo sapiens) (UniProt P11229); assay: Displacement of [3H]-NMS from human recombinant M1 receptor expressed in CHO cells assessed as dissociation half life at 100 fold human M1 receptor binding Ki concentration after 24 hrs by dilution-offset filter binding assay; format: cell-based
T6 sequence (whole entry): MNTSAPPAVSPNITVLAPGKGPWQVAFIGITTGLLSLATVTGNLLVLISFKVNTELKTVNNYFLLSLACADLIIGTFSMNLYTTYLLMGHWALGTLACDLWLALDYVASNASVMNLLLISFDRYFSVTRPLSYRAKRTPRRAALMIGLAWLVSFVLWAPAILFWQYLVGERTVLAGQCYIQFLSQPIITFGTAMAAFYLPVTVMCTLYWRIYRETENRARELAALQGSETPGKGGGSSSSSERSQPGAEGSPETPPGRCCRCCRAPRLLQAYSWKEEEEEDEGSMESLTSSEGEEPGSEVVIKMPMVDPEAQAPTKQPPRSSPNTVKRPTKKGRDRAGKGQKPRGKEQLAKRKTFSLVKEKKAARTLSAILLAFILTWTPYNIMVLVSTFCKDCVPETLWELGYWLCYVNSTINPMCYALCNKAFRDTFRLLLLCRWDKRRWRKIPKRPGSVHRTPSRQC

[21] = biological target: T7, Muscarinic acetylcholine receptor M5 (Homo sapiens) (UniProt P08912); assay: Displacement of [3H]-NMS from human recombinant M5 receptor expressed in CHO cells assessed as dissociation half life at 100 fold human M5 receptor binding Ki concentration after 24 hrs by dilution-offset filter binding assay; format: cell-based
T7 sequence (whole entry): T5 sequence (P08912 whole entry)

[22] = biological target: T8, Muscarinic acetylcholine receptor M2 (Homo sapiens) (UniProt P08172); assay: Displacement of [3H]-NMS from human recombinant M2 receptor expressed in CHO cells assessed as dissociation half life at 100 fold human M2 receptor binding Ki concentration after 24 hrs by dilution-offset filter binding assay; format: cell-based
T8 sequence (whole entry): T2 sequence (P08172 whole entry)

Sequence of Muscarinic acetylcholine receptor M3 (Cavia porcellus, UniProt Q8VH26) (Q8VH26 whole entry): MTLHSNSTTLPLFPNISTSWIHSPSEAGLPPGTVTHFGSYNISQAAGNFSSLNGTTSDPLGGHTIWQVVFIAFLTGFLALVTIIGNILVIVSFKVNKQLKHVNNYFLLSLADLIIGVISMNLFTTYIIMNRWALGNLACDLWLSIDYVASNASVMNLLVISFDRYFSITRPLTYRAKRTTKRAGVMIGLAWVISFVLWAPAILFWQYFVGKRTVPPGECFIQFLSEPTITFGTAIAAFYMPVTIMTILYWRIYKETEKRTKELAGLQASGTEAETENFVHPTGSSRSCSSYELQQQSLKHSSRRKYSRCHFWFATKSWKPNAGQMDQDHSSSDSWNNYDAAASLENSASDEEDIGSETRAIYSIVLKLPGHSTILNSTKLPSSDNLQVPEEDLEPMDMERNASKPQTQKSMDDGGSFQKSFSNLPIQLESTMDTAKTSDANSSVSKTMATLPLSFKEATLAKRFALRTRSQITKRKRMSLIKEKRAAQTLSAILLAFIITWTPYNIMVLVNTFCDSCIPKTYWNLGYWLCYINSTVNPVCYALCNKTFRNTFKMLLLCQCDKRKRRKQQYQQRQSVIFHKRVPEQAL
Sequence of Muscarinic acetylcholine receptor M3 (Cavia porcellus) (Q8VH26 1-587): as the sequence (Q8VH26 whole entry) above

`CC(C)[N+]1(C)C2CCC1CC(OC(=O)C(CO)c1ccccc1)C2.O.[Br-]` (stereo not given) showed an ID50 (Canis familiaris [1]) of 10 µg and a TIME [2] of 1.47 h.

`CC(C)(CCC(C(N)=O)(c1ccccc1)c1ccccc1)N1CC[C@H](Oc2ccccc2)C1` gave a Ki [3] of 1.8 nM, a Papp B→A [4] of 13 ×10⁻⁶ cm/s and a Papp A→B [5] of 16 ×10⁻⁶ cm/s. The Ki [6] was 0.25 nM, the Ki [7] was 1.6 nM and the T1/2 [8] was > 24 h.

Work on `CC(C)(CCC(C(N)=O)(c1ccccc1)c1ccccc1)N1CC(OCc2cccc(O)c2)C1` yielded a microsomal CLint [9] of 13 µL/min/mg, a hepatocyte CLint [10] of 34 µL/min/1e6 cells and a microsomal CLint [11] of 364 µL/min/mg. It also gave a Ki [6] of 0.18 nM and a T1/2 [8] of 20.7 h.

`CC(C)(CCC(C(N)=O)(c1ccccc1)c1ccccc1)N1CC(Oc2ccccc2O)C1` showed a Ki [6] of 11 nM.

For `CC(C)(CCC(C(N)=O)(c1ccccc1)c1ccccc1)N1CC(Oc2cc(O)cc(Cl)c2)C1`, the microsomal CLint [9] was 223 µL/min/mg, the hepatocyte CLint [10] was 116 µL/min/1e6 cells and the microsomal CLint [11] was 361 µL/min/mg. The Ki [6] was 0.22 nM.

With `CC(C)(CCC(C(N)=O)(c1ccccc1)c1ccccc1)N1CC(Oc2cccc(O)c2F)C1` the TIME [2] was > 16 h, the IC50 [12] was 3.48 nM and the ED50 (Cavia porcellus) was 4 µg.

With `CC(C)(CCC(C(N)=O)(c1ccccc1)c1ccccc1)N1CC[C@@H](Oc2cc(O)cc(F)c2)C1` the hepatocyte CLint [10] was 114 µL/min/1e6 cells, the microsomal CLint [11] was > 440 µL/min/mg and the Ki [6] was 0.56 nM. The T1/2 [8] was > 24 h.

`NC(=O)C(CCCN1CC[C@H](Oc2ccccc2)C1)(c1ccccc1)c1ccccc1` gave a Ki [3] of 1.9 nM, a Ki [6] of 2.4 nM and a Ki [7] of 15 nM. It also gave a T1/2 [8] of 0.633 h.

`CC(C)(CCC(C(N)=O)(c1ccccc1)c1ccccc1)N1CC[C@H](Oc2ccc(O)cc2)C1` gave a Ki [6] of 0.76 nM and a T1/2 [8] of 3.82 h.

`CC(C)(CCC(C(N)=O)(c1ccccc1)c1ccccc1)N1CC(Oc2ccc(Cl)c(O)c2)C1` showed a microsomal CLint [9] of 430 µL/min/mg, a hepatocyte CLint [10] of 159 µL/min/1e6 cells and a microsomal CLint [11] of 116 µL/min/mg. It also gave a Ki [6] of 1.9 nM and a T1/2 [8] of 23.5 h.

Molecule `CC(C)(CCC(C(N)=O)(c1ccccc1)c1ccccc1)N1CCC(Oc2ccccc2)CC1` has a Ki [3] of 3.9 nM, a Ki [7] of 2.6 nM and a T1/2 [8] of 17.5 h.

`CC(C)(CCC(C(N)=O)(c1ccccc1)c1ccccc1)N1CC(Oc2cc(O)cc(F)c2)C1` showed a microsomal CLint [9] of 403 µL/min/mg and a microsomal CLint [11] of 176 µL/min/mg.

`CC(C)(CCC(C(N)=O)(c1ccccc1)c1ccccc1)N1CC[C@H](Oc2ccc(Cl)c(O)c2)C1` gave a Ki [6] of 2 nM and a T1/2 [8] of 13.4 h.

In the case of `CC(C)(CCC(C(N)=O)(c1ccccc1)c1ccccc1)N1CC[C@H](Oc2cccc(O)c2)C1`, the TIME [2] is reported as > 16 h, the IC50 [12] is reported as 4.3 nM and the ED50 (Cavia porcellus) is reported as 10 µg.

With `CC(C)(CCC(C(N)=O)(c1ccccc1)c1ccccc1)N1CC(Oc2ccccc2)C1` the Ki [3] was 0.11 nM, the microsomal CLint [11] was > 440 µL/min/mg and the Ki [7] was 0.056 nM. For the same molecule, the T1/2 [8] was 8.02 h.

With `C[N+]1(C)[C@@H]2C[C@@H](OC(=O)C(O)(c3cccs3)c3cccs3)C[C@H]1[C@@H]1O[C@@H]12.O.[Br-]` [TIOTROPIUM BROMIDE] the T1/2 [13] was > 24 h, the T1/2 [14] was > 22.8 h and the Ki [15] was 0.0078 nM. For the same molecule, the Time (Canis familiaris [16]) was 32 h, the ID50 (Canis familiaris [1]) was 3 µg and the Ki [17] was 0.0266 nM. The TIME [2] was > 12.9 h, the T1/2 [18] was 9.45 h and the pKb [19] was 10.2. For the same molecule, the T1/2 [20] was > 23.8 h, the T1/2 [21] was > 24 h and the T1/2 [8] was > 24 h. For the same molecule, the T1/2 [22] was > 13 h.

With `CC(C)(CCC(C(N)=O)(c1ccccc1)c1ccccc1)N1CC[C@@H](Oc2ccccc2)C1` the Ki [3] was 6.4 nM, the Ki [6] was 1.6 nM and the Ki [7] was 12 nM. For the same molecule, the T1/2 [8] was > 24 h.

In the case of `CC(C)(CCC(C(N)=O)(c1ccccc1)c1ccccc1)N1CC[C@@H](Oc2cccc(O)c2)C1`, the TIME [2] is reported as > 16 h, the IC50 [12] is reported as 3.87 nM and the ED50 (Cavia porcellus) is reported as 20 µg.
